Data set [1] is described as follows: In vivo PK study in male Sprague Dawley rats. The following applies: rats; for AUC(0-t): read-out: AUCLast Mean. How it is done: The studies were conducted in male Sprague Dawley rats, three rats per group, or male CD1 mice, three mice per group. Compounds were dosed 1.0 mg/Kg i.v. (vehicle ethanol: % PEG400 in deionized water, in proportions suitable for dosing a clear solution) and 3.0 mg/kg or 10 mg/kg p.o. (vehicle: 1% methyl cellulose: 1,500 cP in DI water (w/v)). A11 animals had free access to food and water. Rat i.v. PK time points: Plasma: 0.083, 0.25, 0.5, 1, 2, 4, 8 and 24 h; Rat p.o. PK time points: Plasma: 0.25, 0.5, 1, 2, 4, 8 and 24 h. Mouse i.v. PK time points: Plasma: 0.083, 0.25, 0.5, 1, 2, 4, 8, 24, and 48 h; Mouse p.o. PK time points: Plasma: 0.25, 0.5, 1, 2, 4, 8, 24, and 48 h. Concentrations of compound in the plasma samples were analyzed using a LC-MS/MS method. WinNonlin (Phoenix™, version 6.1) or other similar software was used for pharmacokinetic calculations.

Data set [2] is described as follows: Plasma Protein Binding with Ultracentrifugation Method, rat. The following applies: rat plasma, 1.0 μM; read-out: Rat plasma protein binding (% bound). The class given is in vitro ADME. The procedure: The frozen plasma (stored at −80° C.) was thawed in a 37° C. water bath, followed by centrifugation at 3,220 g for 10 minutes to remove clots. The supernatant was removed into a new tube as the spun plasma. The spun plasma was pre-warmed in a 37° C. water bath for 10 minutes. The stock solutions of test compounds were diluted to 200 μM in DMSO, and then spiked into the plasma. Duplicate samples were prepared. The final concentration of compound was 1.0 μM. The final concentration of organic solvent was 0.5%. Warfarin was used as positive control in the assay. 1.0 mL of the spiked plasma was transferred to a new balance ultracentrifuge tube. Samples were incubated at 37° C., 5% CO2 for 30 minutes. After incubation, the balance ultracentrifuge tubes were centrifuged at 600,000 g for 5.5 hours at 37° C. After centrifugation, 50 μL solution was removed from the center of the ultracentrifuge tubes as the post-ultracentrifugation samples, followed by the addition of 50 μL blank plasma and 400 μL quench solution (acetonitrile containing internal standards (IS, 100 nM Alprazolam, 500 nM Labetalol and 2 μM Ketoprofen)) to precipitate protein and release compounds. Samples were vortexed for 2 minutes, followed by centrifugation at 20,000 g for 15 minutes at room temperature. The supernatant was diluted with ultrapure water and then used for LC-MS/MS analysis. Stability samples was prepared by transferring 50 μL of the spiked plasma to 0.6 mL tubes and incubated at 37° C., 5% CO2 for 0.5 and 6 hours. After incubation, 50 μL PBS (100 mM, pH7.4) and 400 μL quench solution were added to the stability samples. And then stability samples were treated the same way as the post-ultracentrifugation samples. The supernatant was diluted with ultrapure water and then used for LC-MS/MS analysis. 0.5 hour time point samples were also used as no-spun controls. Time 0 samples were prepared by transferring 50 μL spiked plasma to 0.6 mL tubes containing 50 μL PBS, followed by the addition of 400 μL quench solution to precipitate protein and release compound. And then these samples were treated the same way as the post-ultracentrifugation samples. The supernatant was diluted with ultrapure water and then used for LC-MS/MS analysis.
Data Analysis: All calculations were carried out using Microsoft Excel. The concentrations of test compound in plasma samples and post-ultracentrifugation plasma was determined from peak areas. The percentages of test compound bound was calculated as follows: […]
“+++” indicates a % bound value less than 50, “++” indicates a % bound value between 50 and 75, and “+” indicates a % bound value above 75.

Data set [3] is described as follows: CT26 syngeneic colon cancer model, AhR antagonist with PD-L1 antibody. It counts as in vivo. The following applies: female, Balb/c, mouse, in vivo, po; CT26 model, dose 10 mg/kg.
The test system of data set [4] is CT26 cells implanted subcutaneously into Balb/c mice. The description is as above. It counts as in vivo. The following applies: for tumor volume, coadministration with PD-L1 antibody / tumor weight upon termination of study, coadministration with PD-L1 antibody: 10 mg/kg p.o. once a day over 14 days with anti-PD-L1 antibody 10 mg/kg IP every 3 days.
The mark [5] stands for this setting: male, Sprague Dawley, rat, plasma, 1 mg/kg IV.
Where [6] appears, read: male, Sprague Dawley, rat, plasma, PO, dosage of 3 mg/kg.

Each structure is given as a SMILES string. Where two headings read alike, the source gives them in different places.

Broadly, the Cmax is the peak of the concentration-time curve. Broadly, the Tmax is the time from dosing to the highest level. A word on the bioavailability: it is dose-corrected exposure relative to a reference, in per cent.

`C[C@H](n1cnc2c(-c3cnn(C)c3)nc(-c3ccc(Cl)cc3)cc2c1=O)C(C)(C)O` [Compound 30]: in data set [1] (setting [5]), the C0 turned out to be 311 ng/mL. For the same compound, the AUC(0-inf) in data set [1] (male, Sprague Dawley, rat, plasma, 1 mg/kg IV, read-out: AUCInf Mean) came out at 2030 ng·h/mL. In addition, the AUC(0-t) in data set [1] (setting [5]) turned out to be 2010 ng·h/mL; in data set [1] (setting [6]) it was 3250 ng·h/mL. For the same compound, the half-life in data set [1] (male, Sprague Dawley, rat, plasma, 1 mg/kg IV, read-out: T1/2 Mean (converted)) is 3.62 h. The Cmax in data set [1] (setting [6]) is 276 ng/mL; in data set [3], 5.88 µM. Moreover, the Tmax in data set [1] (setting [6]) stood at 3.33 h. Further, in data set [1] (male, Sprague Dawley, rat, plasma, PO, dosage of 3 mg/kg, read-out: Bioavailability), the bioavailability is 53.9%. For the same compound, in data set [1] (1 mg/kg IV), the “CI Mean” value came to 143 mL/min/kg. Also, in data set [2], the fraction unbound at 30 min, 1 μM was < 0.25. The Cmin in data set [4] (CT26 model, dose 10 mg/kg) was 1,725 nm. The “tumor volume, coadministration with PD-L1 antibody” value in data set [4] (FIG. 4, p=0.039 (Mann-Whitney)) is “reduction in tumor volume”; in data set [4] (FIG. 6, p=0.350 (Kruskal Wallis, Dunn's)), “reduction in tumor volume”. Besides, the “tumor weight upon termination of study, coadministration with PD-L1 antibody” value in data set [4] (FIG. 5, p=0.067 (Mann-Whitney)) is “reduction in tumor weight”; in data set [4] (FIG. 7, p=0.0004 (Kruskal Wallis, Dunn's)) it was “reduction in tumor weight”.

The values above are taken from US20230295152A1 (SENDA BIOSCIENCES, INC., priority 2019, published 2023).
